Results as given in ChEMBL document CHEMBL1123714, “Potential antitumor agents. 48. 3'-Dimethylamino derivatives of amsacrine: redox chemistry and in vivo solid tumor activity” (J Med Chem, 1987).

Assay: physchem
Conditions: 20% DMF

Row | pKa | SMILES
1 | 7.47 | CNc1cc(NS(C)(=O)=O)ccc1Nc1c2ccccc2nc2ccccc12
2 | 7.25 | CN(C)c1cc(NS(C)(=O)=O)ccc1Nc1c2ccccc2nc2ccccc12
